Results as given in US8394641B2, “Method of hydrolyzing an enzymatic substrate” (Advanced Liquid Logic Inc., priority 2009, dated 2013).

Tests used:
Krabbe assay = target: T1, Krabbe assay (Homo sapiens, UniProt P54803); test: Krabbe assay on bench, substrate hydrolysis with cyclodextrins, QC DBS extracts; type: biochemical; details: data not shown
T1 construct: DBS extracts were prepared from quality control (QC) dried blood spot samples; tissue CDC, Atlanta Ga; host or cells: dried blood spot extracts (pooled cord blood / leukoreduced red cells plus serum)
T1 sequence (P54803 43-685): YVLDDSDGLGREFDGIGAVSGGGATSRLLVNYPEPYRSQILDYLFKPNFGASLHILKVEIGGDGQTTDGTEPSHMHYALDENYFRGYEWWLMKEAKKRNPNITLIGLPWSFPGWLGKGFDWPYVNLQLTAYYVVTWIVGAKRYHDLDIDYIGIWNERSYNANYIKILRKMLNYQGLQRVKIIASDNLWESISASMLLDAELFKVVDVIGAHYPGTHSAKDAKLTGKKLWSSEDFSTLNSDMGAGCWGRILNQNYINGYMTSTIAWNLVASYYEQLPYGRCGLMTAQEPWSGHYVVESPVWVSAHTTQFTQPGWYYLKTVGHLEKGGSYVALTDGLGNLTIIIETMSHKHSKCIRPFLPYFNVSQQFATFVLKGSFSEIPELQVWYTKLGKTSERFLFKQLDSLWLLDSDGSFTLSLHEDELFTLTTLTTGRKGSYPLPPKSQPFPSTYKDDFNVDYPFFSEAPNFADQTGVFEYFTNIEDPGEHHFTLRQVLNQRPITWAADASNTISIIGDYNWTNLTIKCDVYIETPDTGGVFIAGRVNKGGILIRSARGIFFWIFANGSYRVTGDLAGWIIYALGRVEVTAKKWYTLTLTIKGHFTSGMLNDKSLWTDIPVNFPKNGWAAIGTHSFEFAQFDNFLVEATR
Procedure: To evaluate the efficacy of cyclodextrins in enhancing the hydrolysis of enzymatic substrates (4-MU substrates) used in NBS assays, DBS extracts were prepared from quality control (QC) dried blood spot samples (i.e., base pool (BP), low (L), medium (M) and high (H) activity samples). The QC samples were obtained from CDC, Atlanta Ga. The base pool (BP) QC sample was prepared from a pool of leukoreduced human red blood cells that was adjusted with serum to a hematocrit of 50%. The High (H) activity QC sample was prepared from pooled cord blood that was adjusted with serum to a hematocrit of 50%. The medium (M) activity QC sample was prepared by using 50% base pool (BP) and 50% high (H) activity sample. The low (L) activity QC sample was prepared by using 95% base pool (BP) and 5% high (H) activity sample. The BP sample is used as a control for hydrolysis non-specific to white blood cell lysosomal enzymes. The DBS extracts were analyzed using on-bench assay protocols for Fabry, Gaucher, Krabbe, and Pompe diseases. For each assay, on-chip reagent formulations were scaled up to bench volumes. Hydroxypropyl-β-cyclodextrin or methyl-β-cyclodextrin reagent stocks (300 mM) were prepared in appropriate assay buffers. […] Fluorescence was read at 360/460 nm at a gain of 75. For each assay, QC samples (BP, L, M and H) were analyzed in duplicate. […]

acid β-D-glucosidase = target: T2, acid β-D-glucosidase (Homo sapiens, UniProt P04062); test: Gaucher assay on bench, substrate hydrolysis with cyclodextrins, QC DBS extracts; type: biochemical; design: DBS extracts were prepared from quality control (QC) dried blood spot samples; tissue CDC, Atlanta Ga; host or cells: dried blood spot extracts (pooled cord blood / leukoreduced red cells plus serum); details: for effect on fluorescence signal in the Gaucher assay, lower concentrations: 1, 5, 10, 15, 20, 25 mM, one experiment; for effect on hydrolysis of the 4-MU substrate in the Gaucher assay: 10, 30, 100 mM tested, effect at 10 mM, 20 hrs at 37° C.
T2 sequence (P04062 40-536): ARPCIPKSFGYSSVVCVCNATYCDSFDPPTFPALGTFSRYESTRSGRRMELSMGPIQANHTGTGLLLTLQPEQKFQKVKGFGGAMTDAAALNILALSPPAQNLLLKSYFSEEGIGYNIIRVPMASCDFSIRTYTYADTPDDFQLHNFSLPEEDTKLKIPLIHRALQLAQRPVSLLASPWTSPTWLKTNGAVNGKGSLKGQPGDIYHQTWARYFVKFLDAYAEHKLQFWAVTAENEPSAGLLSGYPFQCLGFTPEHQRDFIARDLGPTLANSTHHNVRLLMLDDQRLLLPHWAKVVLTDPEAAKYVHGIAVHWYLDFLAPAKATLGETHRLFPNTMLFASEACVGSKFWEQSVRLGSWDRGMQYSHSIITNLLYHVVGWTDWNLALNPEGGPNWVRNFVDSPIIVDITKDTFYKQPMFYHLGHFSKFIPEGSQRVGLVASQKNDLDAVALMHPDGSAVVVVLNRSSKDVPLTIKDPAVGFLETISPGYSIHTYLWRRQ
Procedure: To evaluate the efficacy of cyclodextrins in enhancing the hydrolysis of enzymatic substrates (4-MU substrates) used in NBS assays, DBS extracts were prepared from quality control (QC) dried blood spot samples (i.e., base pool (BP), low (L), medium (M) and high (H) activity samples). The QC samples were obtained from CDC, Atlanta Ga. The base pool (BP) QC sample was prepared from a pool of leukoreduced human red blood cells that was adjusted with serum to a hematocrit of 50%. The High (H) activity QC sample was prepared from pooled cord blood that was adjusted with serum to a hematocrit of 50%. The medium (M) activity QC sample was prepared by using 50% base pool (BP) and 50% high (H) activity sample. The low (L) activity QC sample was prepared by using 95% base pool (BP) and 5% high (H) activity sample. The BP sample is used as a control for hydrolysis non-specific to white blood cell lysosomal enzymes. The DBS extracts were analyzed using on-bench assay protocols for Fabry, Gaucher, Krabbe, and Pompe diseases. For each assay, on-chip reagent formulations were scaled up to bench volumes. Hydroxypropyl-β-cyclodextrin or methyl-β-cyclodextrin reagent stocks (300 mM) were prepared in appropriate assay buffers. For each reaction, 10 μL of the appropriate substrate was mixed with 10 μL of DBS extract. After an incubation period (20 hrs at 37° C.), 50 μL of stop buffer (0.2 M NaCO3, pH 10.1) was added to the reaction. Fluorescence was read at 360/460 nm at a gain of 75. For each assay, QC samples (BP, L, M and H) were analyzed in duplicate.
FIGS. 21A and 21B show bar graphs 2100 and 2150 of the effect of hydroxypropyl-β-cyclodextrin and methyl-β-cyclodextrin, respectively, on substrate hydrolysis in a Gaucher assay. The 4-MU substrate in the Gaucher assay was β-D-glucopyranoside. The concentrations of β-cyclodextrins in the reaction mixture (substrate+DBS extract) were 10 mM, 30 mM, and 100 mM.
FIGS. 23A and 23B show bar graphs 2300 and 2350, respectively, of an experimental result of the effect of lower concentrations of hydroxypropyl-β-cyclodextrin and methyl-β-cyclodextrin, respectively, on substrate hydrolysis in a Gaucher assay. The 4-MU substrate in the Gaucher assay was β-D-glucopyranoside. The concentrations of β-cyclodextrins in the reaction mixture (substrate+DBS extract) were 1, 5, 10, 15, 20, and 25 mM. […] The β-cyclodextrin used may be hydroxypropyl-β-cyclodextrin at a concentration from about 5 mM to about 15 mM, or from about 7 mM to about 13 mM, or from about 9 mM to about 11 mM, or from about 9.5 mM to about 11.5 mM.

| Substance | effect on substrate hydrolysis in a Krabbe assay (Krabbe assay) | effect on fluorescence signal in the Gaucher assay, lower concentrations (acid β-D-glucosidase) | effect on hydrolysis of the 4-MU substrate in the Gaucher assay (acid β-D-glucosidase) |
| --- | --- | --- | --- |
| hydroxypropyl-β-cyclodextrin | inhibitory | may affect the fluorescence signal | increase the hydrolysis |
| methyl-β-cyclodextrin | inhibitory | may affect the fluorescence signal | increase the hydrolysis |
